Reference: PubChem BioAssay (NCI)
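Method: 48-hour compound exposure of cells in 96-well plates, five concentrations, linear interpolation of endpoints. At the TGI there is no net growth.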 Where a SMILES comes first, the peptide text is derived from it. [ ]: non-standard residue; d: D form. The star is where a group is joined. ξ: configuration not given here. ξPhe(4-NO2) = NC(Cc1ccc([N+](=O)[O-])cc1)C(=O)O; Boc = CC(C)(C)OC(=O)*; OBn = c1ccc(CO*)cc1

How the values were obtained:
Experiment in all cases: NCI-60 cell line screen, 48 h
[1] = test system: COLO 205 colon
[2] = test system: MDA-MB-435
[3] = test system: SW-620 colon
[4] = test system: CAKI-1 renal
[5] = test system: UACC-257 melanoma

SMILES	TGI [1] [µM]	TGI [2] [µM]	TGI [3] [µM]	TGI [4] [µM]	TGI [5] [µM]
Cc1cnc2[nH]c(-c3ccc(F)cc3)cc(=O)c2c1	> 52.7	12.6	> 100	> 100	> 100
COC(=O)/C(C#N)=C1\NC(=O)CC(c2ccccc2)C1C#N (stereo unspecified)	> 100	–	> 100	> 100	> 100
C[C@]12CC(c3ccccc3O1)C(C#N)C(=O)N2 (stereo partly specified)	> 100	> 100	> 100	> 100	> 100
C=C(C)[C@@H]1CC[C@@H](C)[C@](O)([C@@H]2C[C@@H]([C@H](COC(=O)c3ccccc3)OC(=O)c3ccccc3)OC2=O)C1	> 100	> 100	> 100	> 100	> 100
CCCCCC(=O)OCC(=O)[C@H]1[C@H](C)C[C@H]2[C@@H]3C[C@H](F)C4=C/C(=N/OC(=O)c5cccc6c(=O)c7ccccc7[nH]c56)C=C[C@]4(C)[C@H]3[C@@H](O)C[C@@]21C	72.8	55.3	> 100	> 100	62
CCCCSC1=N/C(=C\c2ccco2)C(=O)N1	> 100	> 100	> 100	> 100	> 100
COc1ccc(-c2c3c(n(C4OC(CO)C(O)C(O)C4O)c(=S)c2C#N)CC(C)(C)CC3=O)cc1 (stereo unspecified)	> 100	> 100	–	> 100	> 100
CS(=O)(=O)c1[nH]nc2[nH]c(=O)[nH]c(=O)c12	> 10	> 10	> 10	> 10	> 10
O=c1cc(NCC2CCCCC2)[nH]c(=O)[nH]1	> 100	> 100	> 100	–	> 100
CC1(C)C=[N+]([O-])C(C)(C)N1	> 100	> 100	> 100	> 100	> 100
CCOC(=O)c1cc(C2CCN(CC(C)CC)C2=S)c(C(=O)/C=C(/C)N)[nH]1 (stereo unspecified)	> 50	> 50	> 50	> 50	> 50
O=C1SC(c2ccc(Cl)cc2)(c2ccc(Cl)cc2)c2ccccc21	> 100	> 100	> 100	> 100	> 100
CC(C)(C)OC(=O)NC(Cc1ccc([N+](=O)[O-])cc1)C(=O)NCC(=O)OCc1ccccc1 (stereo unspecified) (Boc-[ξPhe(4-NO2)]-Gly-OBn)	32.3	33.2	> 100	27.7	–
O=[N+]([O-])/C(Cl)=C(\Nc1ccccc1)C(Cl)=C(Cl)Cl	39.5	35.1	–	> 100	> 100
COC(C/C(=C/CO[Si](C(C)C)(C(C)C)C(C)C)C(=O)Nc1ccccc1I)OC	> 100	> 100	> 100	> 100	> 100
Cc1ccc(S(=O)(=O)[N-]C2C(=O)c3ccccc3C(=O)C2[n+]2cccc(C(N)=O)c2)cc1 (stereo unspecified)	59.4	> 100	> 100	> 100	> 100
CO/C(=N\N=C\c1ccc(OC)cc1OC)c1ccncc1	> 10	–	> 10	–	–

SMILES	TGI [1] [µM]	TGI [2] [µM]	TGI [3] [µM]	TGI [4] [µM]	TGI [5] [µM]
COc1cc(C)cc2c1C(=O)C(Br)=CC2=O	3.23	5.68	3.62	3.18	26.7
CC1=CC2(O)OC3(CC2=C(C)C)C(C)CCC13 (stereo unspecified)	> 100	> 100	> 100	> 100	> 100
COc1ccc(OC)c(NC(=O)C(=O)Nn2c(=S)[nH]c3ccccc3c2=O)c1	–	> 100	> 100	> 100	> 100
COc1ccc(C2CC(=O)Oc3ccccc3O2)cc1 (stereo unspecified)	> 100	> 100	> 100	–	> 100
Cn1c2ccccc2c(=O)c2c(O)cc3c(c21)C=CC1(CCCC1)O3	> 100	> 100	> 100	> 100	> 100
C[C@@H]1C[C@@H](O)[C@@]2(O)C13CC(=O)OC(C3)[C@@H](C)[C@@]2(C)CO (stereo partly specified)	> 100	> 100	> 100	–	> 100
O=c1oc2ccccc2cc1-c1nnc(-c2ccccc2)s1	> 100	12.9	> 100	> 100	> 100
COc1ccc2nc3cc([N+](=O)[O-])ccc3c(NNc3ccc(Cl)cc3)c2c1	60.8	> 100	> 76.3	2.26	> 100
OCCSCc1cc2c(O)c(c1)Cc1cc(CSCCO)cc(c1O)Cc1cc(CSCCO)cc(c1O)Cc1cc(CSCCO)cc(c1O)C2	7.31	9.04	15.1	9.63	27.7
C/C(=N\NC(=O)/C(C#N)=C\c1ccc(N(CCC#N)CCC#N)cc1)c1ccccc1	> 10	> 10	> 10	> 10	> 10
Nc1nc(Cl)cc(NCC2(CO)CCC2)n1	> 100	> 100	> 100	> 100	–
CC1(C)C=C(/C=N/Nc2ccc(Br)cc2)C(C#N)=C(O)C1(C#N)C#N	36.8	> 100	> 100	95.4	> 100
CC(=N/NC(=S)Nc1c(C)n(C)n(-c2ccccc2)c1=O)/C(C)=N\NC(=S)Nc1c(C)n(C)n(-c2ccccc2)c1=O	> 100	> 100	> 100	> 100	> 100
CCC(CC)C(=O)OC[n+]1cccc(-c2c(COC(=O)NC(C)C)c(COC(=O)NC(C)C)c3n2CCC3)c1	> 100	> 100	> 100	> 100	> 100
O=c1oc2cc(O)ccc2c(O)c1C(c1ccccn1)c1c(O)c2ccc(O)cc2oc1=O	> 100	> 100	> 100	> 100	> 100
Cn1cc2c(=O)n3ncn(-c4ccc(Br)cc4)c3nc2n1	> 100	> 100	> 100	> 100	> 100
Cc1cn(CC2=NCC(C)(C)CN2)c(=O)[nH]c1=O	> 100	–	> 100	–	> 100
